Reference: patent publication US20190225557A1, “IMPROVED UREA-BASED C[…] SULPHUR AND METHOD FOR THE MANUFACTURE THEREOF” (YARA INT[…], priority 2016, published 2019)

Tests used:
[1] = type: physicochemical; details: urea + 10.5% ES + 500 ppm nBTPT as Amiplus liquid (Exp. H-M); open pots in nissenhut; measured after 28 days (ranking given as after 14 days)
Method: (§1) 1.2 kg of solid fertilizer material was added to a lab scale drum. In a next step, the nBTPT material was slowly added and subsequently followed, if applied, by an alkaline or alkaline-forming inorganic or organic compound. A residence time of 10 minutes was applied and the rotating speed of the drum was consequently the same in each experiment. In case a moisture-repellent coating was added, a nebulizer was used and, depending on the order of addition, the moisture-repellent coating was added before or after addition of the nBTPT material. Before use, the moisture-repellent coating was preheated to 80° C.
Typically, a day/night cycle is generated in the nissenhut, with temperature fluctuations between 0 to 42° C. and fluctuations of relative humidity between 20 and 90%, which can be compared with real life storage in silos.
The samples were stored 28 days in open pots in nissenhut.
The samples were stored for 28 days in open pots in nissenhut.

[2] = Accelerated storage stability of nBTPT on fertilizer granules (HPLC analysis of nBTPT content); type: physicochemical; details: nBTPT formulations (500 ppm powder or Agrotain Ultra) applied onto urea comprising 9% elemental sulphur (samples B, C); 12 days at 70° C. in closed plastic container
Method: as §1
For some samples, an accelerated stability test was done after storing these samples at elevated temperatures: • Oven of 30° C., open to air • 70° C. in a closed plastic container
HPLC analysis of nBTPT is done as described in the procedure CEN 15688-2007.
This set of samples was stored at room temperature (20-25° C.) in bags and at elevated temperature (30° C. and 70° C., accelerated stability test).

SMILES: O=C([O-])[O-].[Ca+2] [CaCO3, calcium carbonate]
- effectivity of the stabilizers (ranking) on stability of nBTPT [1]: CaCO3═MgO>CaO>ZnO>Et3N>no stabilizer

SMILES: [O]=[Ca] [CaO, calcium oxide]
- effectivity of the stabilizers (ranking) on stability of nBTPT [1]: CaCO3═MgO>CaO>ZnO>Et3N>no stabilizer

SMILES: [O]=[Mg] [MgO, magnesium oxide]
- effectivity of the stabilizers (ranking) on stability of nBTPT [1]: CaCO3═MgO>CaO>ZnO>Et3N>no stabilizer

SMILES: [O]=[Zn] [ZnO, zinc oxide]
- effectivity of the stabilizers (ranking) on stability of nBTPT [1]: CaCO3═MgO>CaO>ZnO>Et3N>no stabilizer

SMILES: CCCCNP(N)(N)=S [nBTPT, N-(n-butyl) thiophosphoric triamide]
- nBTPT level after storage [2]: 0 weight %
